For data set [1], the target named is T1, human recombinant A3AR (expressed in HEK-293 cells) (Homo sapiens, UniProt P0DMS8).
T1 construct: host or cells: HEK-293 cells
T1 sequence (P0DMS8 1-318): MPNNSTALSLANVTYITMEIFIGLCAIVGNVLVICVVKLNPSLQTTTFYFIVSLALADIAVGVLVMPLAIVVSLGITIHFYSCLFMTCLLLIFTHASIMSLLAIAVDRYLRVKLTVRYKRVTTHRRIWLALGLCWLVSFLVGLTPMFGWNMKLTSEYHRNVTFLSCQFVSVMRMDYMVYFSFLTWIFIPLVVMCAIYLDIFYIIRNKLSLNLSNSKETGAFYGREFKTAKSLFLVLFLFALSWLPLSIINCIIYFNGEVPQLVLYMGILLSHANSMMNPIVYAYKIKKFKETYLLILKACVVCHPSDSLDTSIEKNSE
Put plainly: Adenosine receptors antagonism assay (Eurofins), [125I]-AB-MECA radioligand competition. The class given is binding. In general terms: Loss of bound radioactivity is the signal in a displacement assay; it reports binding, not function.
Method: Assays were carried out at r.t. for 120 min. Compounds were initially tested at three concentrations (0.01, 0.1, 1 µM). […] IC50 values, which is the concentration causing a half-maximal inhibition of control specific binding, and Hill coefficients (nH) were determined by non-linear regression analysis of the competition curves generated with mean replicate values using Hill equation curve fitting. The inhibition constants (Ki) were calculated using the Cheng Prusoff equation.

Data set [2] can be described thus: Reversed-phase HPLC analysis of final compounds (stability under the analytical conditions). The class given is physicochemical. The procedure: Final compounds: Reversed-phase HPLC/MS analyses were carried out with a HPLC Ultimate 3000 (ThermoScientific) with an UV-DAD detector. Mass detection processing with direct infusion in mass detector (SQD2) from UPLC Acquity (Waters). Compounds (0.2 to 0.6 mg) were solubilized in a mixture of DMSO/H2O (1/1) and filtered on syringe filter 0.2 µm. • Acidic conditions: Thermo Scientific Syncronis C18 column, 150 x 4.6 mm, 5 µm. Flow rate: 1 mL/min. Gradient: (H2O + 0.1% HCOOH v/v)/(ACN + 0.1% HCOOH v/v) from 95/5 to 5/95 in 19.0 min. • Alkaline conditions: Thermo Scientific Syncronis C18 column, 150 × 4.6 mm, 5 µm or XTERRA RP18, 150×4.6mm, 3.5µm. Flow rate: 1 mL/min. Gradient: (HCOONH4 10mM + NH4OH 25% aq. to ajust pH = 10)/ACN from 95/5 to 5/95 in 19.0 min. Table 2: Spectroscopic and analytical characterization of compounds (1) to (220)

The nature of data set [3]: LogD (HPLC). The following applies: by HPLC; Table 2. The format is physicochemical.
The subject of data set [4] is panel of 168 GPCRs. The data set can be described thus: PathHunter β-arrestin enzyme fragment complementation, agonist and antagonist mode. The format is cell-based. As to conditions: figure 2. As for the experimental part: […] In brief, when the GPCR is activated and β-Arrestin is recruited to the receptor, the two fragments of β-galactosidase complementation occurs, restoring β- galactosidase activity which is measured using chemiluminescent PathHunter® Detection Reagents. The tested compound can be evaluated as a potential agonist or, in the presnece of a specifi agonits of each GPCR, as a potential antagonist. Results are provided in reference to the assay performed in the absence of tested compound.
The results of an evaluation of the potential agonist or antagonist activity of compound (175) on 168 GPCRs are depicted in figure 2.

The target in data set [5] is T2, Human recombinant A3AR expressed in CHO cells (Homo sapiens, UniProt P0DMS8).
T2 construct: expressed in transfected cells; host or cells: CHO cells
T2 sequence (P0DMS8 1-318): T1 sequence (P0DMS8 1-318)
The data set can be described thus: A3AR functional assay, cAMP levels measured by HTRF. The format is cell-based. The procedure:
Both assays were run for 20 min at 37°C, and cAMP levels measured by HTRF (homogeneous time resolved fluorescence) was used as an endpoint. The EC50 values (concentration producing a half-maximal response) and IC50 values (concentration causing a half-maximal inhibition of the control agonist response) were determined by non-linear regression analysis of the concentration-response curves generated with mean replicate values using Hill equation curve fitting.
An antagonistic activity in a radioligand assay can be due to competition to the same site by either an agonist or an antagonist (inhibitor). […] Assays were run for 20 min at 37°C and cAMP level measured by HTRF was used as an endpoint measure of the A3AR activity.
(In general: cAMP levels reflect the balance of adenylyl cyclase and phosphodiesterase activity.)

The test system of data set [6] is hair cells in isolated organs of Corti. The data set can be described thus: Otoprotective effects in ex vivo cultured organs of Corti, hair cells stained for myosine 7a. The class given is cell-based, mice. The following applies: 24 hrs, compound 0.1-1 µM added 2 hrs before. The procedure:
Organs of Corti were obtained from mice at the P0-P3 stage. Organs of Corti were cultured ex vivo for 24 h before addition of cisplatin (20 µM), gentamycin (100 µM) or neomycin (3 mM) with or without compound (175) (1 or 0.1 µM) added 2 hrs before the ototoxins. After 24 hrs incubation, outer and inner ciliated hair cells were stained with an antibody directed against myosine 7a.

Setting [7] is: [125I]-AB-MECA 0.15 nM, r.t., 120 min, IC50 from dose-response curves, read-out: Potency Class A3AR.

Like-named read-outs stand apart in the source and are kept apart here.

The term chromatographic logD denotes a lipophilicity value derived from retention on a column. Lower therefore signals a more hydrophilic compound.

`CSCCCNc1cc(NCc2ccccc2)c2nnc(C(C)C)n2n1` [compound 17, N8-benzyl-3-isopropyl-N6-(3-methylsulfanylpropyl)-[1,2,4]triazolo[4,3-b]pyridazine-6,8-diamine]: the IC50 in data set [1] (setting [7]) lay in the range of 0.01 to 0.1 µM. The HPLC entry in data set [2] (Acidic conditions (H2O + 0.1% HCOOH / ACN + 0.1% HCOOH gradient)) was “Unstable ^a”.

With `CC(C)c1nnc2c(NCc3ccccc3)cc(NCc3ccccc3)nn12` [compound 130, N6,N8-dibenzyl-3-isopropyl-[1,2,4]triazolo[4,3-b]pyridazine-6,8-diamine], the IC50 in data set [1] (setting [7]) was 0.001 to 0.01 µM. The molecule further gave a chromatographic logD in data set [3] of 3.5.

With `CC(C)c1nnc2c(NCc3ccccc3)cc(NCc3ccncc3)nn12` [compound 133, N8-benzyl-3-isopropyl-N6-(4-pyridylmethyl)-[1,2,4]triazolo[4,3-b]pyridazine-6,8-diamine], in data set [1] (setting [7]), the IC50 lay in the range of 0.1 to 1 µM. Moreover, the chromatographic logD in data set [3] was found to be 2.36.

On to `CC(C)c1nnc2c(NCc3ccccc3)cc(NCc3nccn3C)nn12` [compound 129, N8-benzyl-3-isopropyl-N6-[(1-methylimidazol-2-yl)methyl]-[1,2,4]triazolo[4,3-b]pyridazine-6,8-diamine], for which, in data set [1] (setting [7]), the IC50 was in the range of 0.1 to 1 µM. Further, the chromatographic logD in data set [3] came to 1.95.

For the molecule `CC(C)c1nnc2c(NCc3ccccc3)cc(NCc3cnn(C)c3)nn12` [compound 140, N8-benzyl-3-isopropyl-N6-[(1-methylpyrazol-4-yl)methyl]-[1,2,4]triazolo[4,3-b]pyridazine-6,8-diamine], the IC50 in data set [1] (setting [7]) is 0.01 to 0.1 µM. This molecule came in with a chromatographic logD in data set [3] of 2.3.

As for `CSCCNc1cc(NCc2ccccc2)c2nnc(C(C)C)n2n1` [compound 143, N8-benzyl-3-isopropyl-N6-(2-methylsulfanylethyl)-[1,2,4]triazolo[4,3-b]pyridazine-6,8-diamine], the IC50 in data set [1] (setting [7]) is 0.01 to 0.1 µM. Besides, in data set [3], the chromatographic logD worked out at 3.07.

`CC(C)c1nnc2c(NCc3ccccc3)cc(NC3CCCC3)nn12` [compound 118, N8-benzyl-N6-cyclopentyl-3-isopropyl-[1,2,4]triazolo[4,3-b]pyridazine-6,8-diamine]: in data set [1] (setting [7]), the IC50 is 0.001 to 0.01 µM. The chromatographic logD in data set [3] is 3.84.

In the case of `CC(C)c1nnc2c(NCc3ccccc3)cc(NC3CCCCC3O)nn12` (racemic) [compound 134, racemic trans-2-[[8-(benzylamino)-3-isopropyl-[1,2,4]triazolo[4,3-b]pyridazin-6-yl]amino]cyclohexanol], in data set [1] (read-out: Potency Class A3AR, [125I]-AB-MECA 0.15 nM, r.t., 120 min, IC50 from dose-response curves), the IC50 lay within 0.01 to 0.1 µM. The molecule also showed a chromatographic logD in data set [3] of 2.73.

Regarding `CCC(CC)Nc1cc(Nc2cccnn2)c2nnc(C3CC3)n2n1` [compound 175, 3-cyclopropyl-N6-(pentan-3-yl)-N8-(pyridazin-3-yl)-[1,2,4]triazolo[4,3-b]pyridazine-6,8-diamine], the “selectivity towards ARs” value in data set [1] (A3AR compared to A1AR, A2AAR and A2BAR, figure 3) is listed as “selective of A3AR”. The IC50 in data set [1] (setting [7]) is < 0.001 µM. For the same molecule, in data set [4] (agonist and antagonist mode, 0.1 µM compound), the “effect on all other GPCRs” value was “not or marginally impacted”. Besides, the “inhibition of A3AR among 168 GPCRs” value in data set [4] (antagonist mode, GPCR exposed to its specific ligand and 0.1 µM compound) was “fully inhibited”. Besides, the agonist effect entry in data set [5] (absence of ligand, concentrations tested 1 nM to 3.3 µM, data not shown) is “no agonist effect was detected”. In data set [5] (antagonist mode, stimulation 10 nM IB-MECA, 20 min at 37°C, figure 4), the “inhibition of A3AR” value was ≥ 65%. In addition, the “mode of action on A3AR” value in data set [5] (figure 4) is “partial antagonist inhibitor”. Besides, the “hair cell death induced by cisplatin” value in data set [6] (cisplatin 20 µM, figure 5A) is on record as “prevented cell death”. The “hair cell death induced by gentamycin” value in data set [6] (gentamycin 100 µM, figure 5B) is given as “prevented cell death”. The “hair cell death induced by neomycin” value in data set [6] (neomycin 3 mM, figure 5C) is “prevented cell death”.

In the case of `CC(C)c1nnc2c(NCc3ccccc3)cc(NC34CC5CC(CC(C5)C3)C4)nn12` [compound 137, N6-(1-adamantyl)-N8-benzyl-3-isopropyl-[1,2,4]triazolo[4,3-b]pyridazine-6,8-diamine], the IC50 in data set [1] (setting [7]) was 0.1 to 1 µM. The same molecule displayed a chromatographic logD in data set [3] of 5.02.

Regarding `Cc1cc(C)nc(CNc2cc(NCc3ccccc3)c3nnc(C(C)C)n3n2)n1` [compound 145, N8-benzyl-N6-[(4,6-dimethylpyrimidin-2-yl)methyl]-3-isopropyl-[1,2,4]triazolo[4,3-b]pyridazine-6,8-diamine], in data set [1] (setting [7]), the IC50 was 0.1 to 1 µM. This molecule also gave a chromatographic logD in data set [3] of 2.52.

On to `CC(C)c1nnc2c(NCc3ccccc3)cc(NC3CCc4ccccc43)nn12` (racemic) [compound 146, N8-benzyl-N6-indan-1-yl-3-isopropyl-[1,2,4]triazolo[4,3-b]pyridazine-6,8-diamine], for which, in data set [1] (setting [7]), the IC50 fell in the range of 0.01 to 0.1 µM. Also, in data set [3], the chromatographic logD turned out to be 4.1.

For the molecule `CC(C)c1nnc2c(NCc3ccccc3)cc(NCC3CCCO3)nn12` (racemic) [compound 142, N8-benzyl-3-isopropyl-N6-(tetrahydrofuran-2-ylmethyl)-[1,2,4]triazolo[4,3-b]pyridazine-6,8-diamine], the IC50 in data set [1] (setting [7]) fell in the range of 0.1 to 1 µM. In data set [3], this molecule returned a chromatographic logD of 2.87.

As to `CC(C)c1nnc2c(NCc3ccccc3)cc(NC3CCC3)nn12` [compound 117, N8-benzyl-N6-cyclobutyl-3-isopropyl-[1,2,4]triazolo[4,3-b]pyridazine-6,8-diamine], the IC50 in data set [1] (setting [7]) lay in the range of 0.01 to 0.1 µM. Moreover, the chromatographic logD in data set [3] turned out to be 3.47.

`CC(C)c1nnc2c(NCc3ccccc3)cc(NC3CCCCC3)nn12` [compound 119, N8-benzyl-N6-cyclohexyl-3-isopropyl-[1,2,4]triazolo[4,3-b]pyridazine-6,8-diamine]: the IC50 in data set [1] (setting [7]) is 0.01 to 0.1 µM. Besides, the chromatographic logD in data set [3] was determined as 4.17.

As for `CC(C)c1nnc2c(NCc3ccccc3)cc(NCCOc3ccccc3)nn12` [compound 128, N8-benzyl-3-isopropyl-N6-(2-phenoxyethyl)-[1,2,4]triazolo[4,3-b]pyridazine-6,8-diamine], in data set [1] (setting [7]), the IC50 lay in the range of 0.1 to 1 µM. In addition, the chromatographic logD in data set [3] is 3.68.

In the case of `CC(C)c1nnc2c(NCc3ccccc3)cc(NCc3ccccn3)nn12` [compound 131, N8-benzyl-3-isopropyl-N6-(2-pyridylmethyl)-[1,2,4]triazolo[4,3-b]pyridazine-6,8-diamine], the IC50 in data set [1] (setting [7]) lay in the range of 0.01 to 0.1 µM. Also, in data set [3], the chromatographic logD is 2.51.

In the case of `CC(C)c1nnc2c(NCc3ccccc3)cc(NC3Cc4ccccc4C3)nn12` [compound 138, N8-benzyl-N6-indan-2-yl-3-isopropyl-[1,2,4]triazolo[4,3-b]pyridazine-6,8-diamine], the IC50 in data set [1] (setting [7]) fell in the range of 0.01 to 0.1 µM. In data set [3], this molecule gave a chromatographic logD of 4.08.

In the case of `CCC(CC)Nc1cc(NC(=O)Oc2ccccc2)c2nnc(C(C)C)n2n1` [compound 100, phenyl N-[6-(1-ethylpropylamino)-3-isopropyl-[1,2,4]triazolo[4,3-b]pyridazin-8-yl]carbamate], in data set [1], the IC50 fell in the range of 0.001 to 0.01 µM. Further, the HPLC result in data set [2] (Alkaline conditions (HCOONH4 10mM + NH4OH, pH = 10 / ACN gradient)) was “Unstable ^b”.

Turning to `CC(C)c1nnc2c(NCc3ccccc3)cc(Nc3nccn3C)nn12` [compound 144, N8-benzyl-3-isopropyl-N6-(1-methylimidazol-2-yl)-[1,2,4]triazolo[4,3-b]pyridazine-6,8-diamine], the IC50 in data set [1] (setting [7]) is 0.1 to 1 µM. In addition, the chromatographic logD in data set [3] stood at 2.27.

The values are drawn from patent publication EP4477653A1 (Perha Pharmaceuticals, priority 2023, dated 2024).
